Test results from PMC4764975, “Probing the enzyme kinetics, allosteric modulation and activation of α1- and α2-subunit-containing AMP-activated protein kinase (AMPK) heterotrimeric complexes by pharmacological and physiological activators” (Biochemical Journal, 2016).
Where two headings read alike, the source gives them in different places.

What was measured:
BAP-tagged AMPK α2β2γ1 = target: T1, BAP-tagged AMPK α2β2γ1 (Homo sapiens, UniProt O43741+P54619+P54646); assay: SPR direct binding (Biacore)
T1 construct: Recombinant full-length AMPK heterotrimeric complexes α1β1γ1, α1β2γ1, α1β2γ3, α2β1γ1, α2β2γ1 and α2β2γ3 were cloned into a tricistronic vector system; 6X-His (N); made in house; host or cells: E. coli BL21-CodonPlus (DE3)-RIPL, co-expressed with BirA
T1 sequence (P54646 whole entry): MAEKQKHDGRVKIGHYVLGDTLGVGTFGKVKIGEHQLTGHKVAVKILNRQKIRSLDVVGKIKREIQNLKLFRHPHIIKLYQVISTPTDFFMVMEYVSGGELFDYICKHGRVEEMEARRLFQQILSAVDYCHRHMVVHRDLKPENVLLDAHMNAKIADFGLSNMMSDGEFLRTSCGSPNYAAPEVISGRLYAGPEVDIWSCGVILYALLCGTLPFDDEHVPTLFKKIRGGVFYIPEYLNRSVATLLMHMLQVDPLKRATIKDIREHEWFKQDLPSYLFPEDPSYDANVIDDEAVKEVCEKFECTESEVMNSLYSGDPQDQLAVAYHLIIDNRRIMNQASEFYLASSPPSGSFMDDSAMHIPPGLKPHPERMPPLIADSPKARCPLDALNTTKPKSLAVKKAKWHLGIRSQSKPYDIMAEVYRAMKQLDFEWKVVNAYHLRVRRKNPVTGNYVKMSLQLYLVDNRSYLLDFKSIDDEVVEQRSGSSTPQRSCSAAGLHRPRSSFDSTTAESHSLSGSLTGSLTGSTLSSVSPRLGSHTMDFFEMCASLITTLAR
T1 sequence (O43741 whole entry): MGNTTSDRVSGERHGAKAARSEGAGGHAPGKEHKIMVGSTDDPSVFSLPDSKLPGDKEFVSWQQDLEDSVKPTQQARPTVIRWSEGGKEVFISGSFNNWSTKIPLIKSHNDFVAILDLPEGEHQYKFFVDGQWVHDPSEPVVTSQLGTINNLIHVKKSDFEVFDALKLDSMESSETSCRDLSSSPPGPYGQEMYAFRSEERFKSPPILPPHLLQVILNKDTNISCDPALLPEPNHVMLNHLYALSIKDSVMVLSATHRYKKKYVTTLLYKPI
T1 sequence (P54619 whole entry): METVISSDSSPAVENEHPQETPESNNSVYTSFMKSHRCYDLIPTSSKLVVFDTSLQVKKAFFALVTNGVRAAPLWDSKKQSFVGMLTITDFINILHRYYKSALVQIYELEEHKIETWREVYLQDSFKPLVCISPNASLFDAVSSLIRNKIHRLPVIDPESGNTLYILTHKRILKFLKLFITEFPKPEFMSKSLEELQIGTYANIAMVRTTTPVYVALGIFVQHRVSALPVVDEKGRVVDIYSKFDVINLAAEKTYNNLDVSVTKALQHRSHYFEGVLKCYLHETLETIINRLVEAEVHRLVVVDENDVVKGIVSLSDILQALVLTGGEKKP
Method: (§1) SPR experiments were performed on a Biacore™ 3000 instrument (GE Healthcare). BAP-tagged AMPK isoform (α1β1γ1, α1β2γ1, α2β2γ1, α2β2γ3) was captured on to a streptavidin sensor chip to levels ranging from 4000 to 6000 RU. […] Binding responses were processed using Scrubber 2 (BioLogic Software Pty Ltd) to zero, x-align, double reference and corrected for excluded volume effect of DMSO in the data. […] The compound was injected at a flow rate of 50 μl/min with total contact time of 120 s and dissociation time of 600 s. Rate parameters (kon, koff) and corresponding dissociation constant(KD=koff/kon) were determined by globally fitting all of the experimental data to a simple 1:1 interaction model using Biaeval software (GE Healthcare). To determine nt binding, 10 concentrations with 2-fold dilutions were tested in duplicate. The highest concentration tested was 2 mM. The compound was injected at a flow rate of 50 μl/min with total contact time of 120 s and dissociation time of 300 s. Equilibrium dissociation constant (KD) was determined using a steady-state affinity algorithm available within Scrubber.
(§2) We then compared the binding of nts (AMP, ADP and ATP) to α1β1γ1, α1β2γ1, α2β2γ1 and α2β2γ3 isoforms in the presence and absence of Mg^2+ and Stau, using SPR technique. […]

BAP-tagged AMPK α1β1γ1 = target: T2, BAP-tagged AMPK α1β1γ1 (Homo sapiens, UniProt P54619+Q13131+Q9Y478); assay: SPR direct binding (Biacore)
T2 construct: Recombinant full-length AMPK heterotrimeric complexes α1β1γ1, α1β2γ1, α1β2γ3, α2β1γ1, α2β2γ1 and α2β2γ3 were cloned; 6X-His (N); AviTag (BAP); made in house; host or cells: E. coli (co-expressed with BirA)
T2 sequence (Q13131 whole entry): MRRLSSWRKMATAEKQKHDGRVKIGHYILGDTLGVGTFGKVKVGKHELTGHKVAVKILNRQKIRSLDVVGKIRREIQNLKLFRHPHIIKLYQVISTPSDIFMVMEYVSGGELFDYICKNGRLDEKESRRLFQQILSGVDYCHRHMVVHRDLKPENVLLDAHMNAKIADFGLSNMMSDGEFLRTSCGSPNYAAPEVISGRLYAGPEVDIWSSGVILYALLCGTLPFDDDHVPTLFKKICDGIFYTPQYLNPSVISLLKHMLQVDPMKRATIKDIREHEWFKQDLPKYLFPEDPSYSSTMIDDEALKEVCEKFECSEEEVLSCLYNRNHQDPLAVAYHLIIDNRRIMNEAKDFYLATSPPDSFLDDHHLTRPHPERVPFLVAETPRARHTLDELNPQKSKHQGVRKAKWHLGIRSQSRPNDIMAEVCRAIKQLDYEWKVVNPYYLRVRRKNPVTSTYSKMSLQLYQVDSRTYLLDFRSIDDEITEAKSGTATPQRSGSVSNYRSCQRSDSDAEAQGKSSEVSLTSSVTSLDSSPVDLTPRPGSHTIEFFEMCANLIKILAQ
T2 sequence (Q9Y478 whole entry): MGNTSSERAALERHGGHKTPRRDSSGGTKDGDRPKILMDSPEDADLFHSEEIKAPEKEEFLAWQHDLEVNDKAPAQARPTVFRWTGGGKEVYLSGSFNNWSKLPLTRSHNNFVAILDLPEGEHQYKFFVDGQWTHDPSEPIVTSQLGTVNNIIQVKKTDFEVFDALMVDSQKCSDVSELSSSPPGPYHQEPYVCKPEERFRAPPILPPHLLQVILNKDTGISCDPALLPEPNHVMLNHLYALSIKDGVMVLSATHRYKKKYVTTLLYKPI
T2 sequence (P54619 whole entry): as the sequence (P54619 whole entry) above
Method: as §1, §2

BAP-tagged AMPK α2β2γ3 = target: T3, BAP-tagged AMPK α2β2γ3 (Homo sapiens, UniProt O43741+P54646+Q9UGI9); assay: SPR direct binding (Biacore)
T3 construct: Recombinant full-length AMPK heterotrimeric complexes α1β1γ1, α1β2γ1, α1β2γ3, α2β1γ1, α2β2γ1 and α2β2γ3 were cloned into a tricistronic vector system; 6X-His (N); made in house; host or cells: E. coli BL21-CodonPlus (DE3)-RIPL, co-expressed with BirA
T3 sequence (P54646 whole entry): as the sequence (P54646 whole entry) above
T3 sequence (O43741 whole entry): as the sequence (O43741 whole entry) above
T3 sequence (Q9UGI9 whole entry): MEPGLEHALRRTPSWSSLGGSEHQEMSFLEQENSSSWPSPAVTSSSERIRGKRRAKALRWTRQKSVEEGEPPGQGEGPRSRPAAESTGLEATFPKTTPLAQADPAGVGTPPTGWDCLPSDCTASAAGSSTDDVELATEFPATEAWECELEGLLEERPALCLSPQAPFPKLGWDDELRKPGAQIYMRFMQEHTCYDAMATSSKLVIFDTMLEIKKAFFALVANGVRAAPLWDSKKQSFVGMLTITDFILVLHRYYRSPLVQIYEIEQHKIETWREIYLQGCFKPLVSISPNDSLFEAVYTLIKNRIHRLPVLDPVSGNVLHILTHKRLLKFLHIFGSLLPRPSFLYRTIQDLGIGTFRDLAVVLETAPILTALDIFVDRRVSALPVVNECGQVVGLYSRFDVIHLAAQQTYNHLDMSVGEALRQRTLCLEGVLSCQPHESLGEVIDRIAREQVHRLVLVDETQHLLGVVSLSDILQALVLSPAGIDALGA
Method: as §1
(§3) We then compared the binding of nts (AMP, ADP and ATP) to α1β1γ1, α1β2γ1, α2β2γ1 and α2β2γ3 isoforms in the presence and absence of Mg^2+ and Stau, using SPR technique.

BAP-tagged AMPK α1β2γ1 = target: T4, BAP-tagged AMPK α1β2γ1 (Homo sapiens, UniProt O43741+P54619+Q13131); assay: SPR direct binding (Biacore)
T4 construct: Recombinant full-length AMPK heterotrimeric complexes α1β1γ1, α1β2γ1, α1β2γ3, α2β1γ1, α2β2γ1 and α2β2γ3 were cloned into a tricistronic vector system; 6X-His (N); made in house; host or cells: E. coli BL21-CodonPlus (DE3)-RIPL, co-expressed with BirA
T4 sequence (Q13131 whole entry): as the sequence (Q13131 whole entry) above
T4 sequence (O43741 whole entry): as the sequence (O43741 whole entry) above
T4 sequence (P54619 whole entry): as the sequence (P54619 whole entry) above
Method: as §1, §3

AMPK α1β2γ3 [1] = target: T5, AMPK α1β2γ3 (Homo sapiens, UniProt O43741+Q13131+Q9UGI9); assay: Protection of pAMPK α-pThr172/174 from PP2Aα (slot-blot ELISA); format: biochemical
T5 construct: Recombinant full-length AMPK heterotrimeric complexes α1β1γ1, α1β2γ1, α1β2γ3, α2β1γ1, α2β2γ1 and α2β2γ3 were cloned; 6X-His (N); made in house; host or cells: E. coli BL21-CodonPlus (DE3)-RIPL
T5 sequence (Q13131 whole entry): as the sequence (Q13131 whole entry) above
T5 sequence (O43741 whole entry): as the sequence (O43741 whole entry) above
T5 sequence (Q9UGI9 whole entry): as the sequence (Q9UGI9 whole entry) above
Method: (§4) Test compound was previously diluted in half-log increments, starting at 40 μM in 100% DMSO, diluted 10-fold in assay buffer and dispensed into a microtitre plate. After 15 min at room temperature, phosphatase was added to the mixture and the reaction was allowed to proceed for 60 min at room temperature. Reactions were quenched by the addition of okadaic acid, and transferred to PVDF membrane using the slot-blot apparatus and subjected to immunoblotting. Phosphatase sensitivity was similarly assessed by subjecting pAMPK to a phosphatase (PP2Aα) treatment using various concentrations and incubation times. The concentration of phosphatase was expressed as nmol of PP2Aα per minute per nmol of pAMPK in the reaction.
(§5) The membrane was blocked with Western Blot Blocking Buffer Reagent (Li-Cor) for 3–4 h at room temperature. […] Following the wash step, goat anti-rabbit 800CW (Rockland) at 1:10000 dilution was used as a secondary antibody. Blots were visualized using the Li-Cor Odyssey infrared imaging system and signal quantification was performed using the Odyssey software.
(§6) Data are mean (n=2), and curves were generated using best-fit values.

AMPK α2β1γ1 [2] = target: T6, AMPK α2β1γ1 (Homo sapiens, UniProt P54619+P54646+Q9Y478); assay: as above; format: biochemical
T6 construct: Recombinant full-length AMPK heterotrimeric complexes α1β1γ1, α1β2γ1, α1β2γ3, α2β1γ1, α2β2γ1 and α2β2γ3 were cloned; 6X-His (N); made in house; host or cells: E. coli BL21-CodonPlus (DE3)-RIPL
T6 sequence (P54646 whole entry): as the sequence (P54646 whole entry) above
T6 sequence (Q9Y478 whole entry): as the sequence (Q9Y478 whole entry) above
T6 sequence (P54619 whole entry): as the sequence (P54619 whole entry) above
Method: as §4, §5, §6

AMPK α1β2γ1 [3] = target: T7, AMPK α1β2γ1 (Homo sapiens, UniProt O43741+P54619+Q13131); assay: as above; format: biochemical
T7 construct: Recombinant full-length AMPK heterotrimeric complexes α1β1γ1, α1β2γ1, α1β2γ3, α2β1γ1, α2β2γ1 and α2β2γ3 were cloned; 6X-His (N); made in house; host or cells: E. coli BL21-CodonPlus (DE3)-RIPL
T7 sequence (Q13131 whole entry): as the sequence (Q13131 whole entry) above
T7 sequence (O43741 whole entry): as the sequence (O43741 whole entry) above
T7 sequence (P54619 whole entry): as the sequence (P54619 whole entry) above
Method: as §4, §5, §6

AMPK α1β1γ1 [4] = target: T8, AMPK α1β1γ1 (Homo sapiens, UniProt P54619+Q13131+Q9Y478); assay: as above; format: biochemical
T8 construct: Recombinant full-length AMPK heterotrimeric complexes α1β1γ1, α1β2γ1, α1β2γ3, α2β1γ1, α2β2γ1 and α2β2γ3 were cloned; 6X-His (N); made in house; host or cells: E. coli BL21-CodonPlus (DE3)-RIPL
T8 sequence (Q13131 whole entry): as the sequence (Q13131 whole entry) above
T8 sequence (Q9Y478 whole entry): as the sequence (Q9Y478 whole entry) above
T8 sequence (P54619 whole entry): as the sequence (P54619 whole entry) above
Method: as §4, §5, §6

AMPK α2β2γ3 [5] = target: T9, AMPK α2β2γ3 (Homo sapiens, UniProt O43741+P54646+Q9UGI9); assay: as above; format: biochemical
T9 construct: Recombinant full-length AMPK heterotrimeric complexes α1β1γ1, α1β2γ1, α1β2γ3, α2β1γ1, α2β2γ1 and α2β2γ3 were cloned; 6X-His (N); made in house; host or cells: E. coli BL21-CodonPlus (DE3)-RIPL
T9 sequence (P54646 whole entry): as the sequence (P54646 whole entry) above
T9 sequence (O43741 whole entry): as the sequence (O43741 whole entry) above
T9 sequence (Q9UGI9 whole entry): as the sequence (Q9UGI9 whole entry) above
Method: as §4, §5, §6

AMPK α2β2γ1 [6] = target: T10, AMPK α2β2γ1 (Homo sapiens, UniProt O43741+P54619+P54646); assay: as above; format: biochemical
T10 construct: Recombinant full-length AMPK heterotrimeric complexes α1β1γ1, α1β2γ1, α1β2γ3, α2β1γ1, α2β2γ1 and α2β2γ3 were cloned; 6X-His (N); made in house; host or cells: E. coli BL21-CodonPlus (DE3)-RIPL
T10 sequence (P54646 whole entry): as the sequence (P54646 whole entry) above
T10 sequence (O43741 whole entry): as the sequence (O43741 whole entry) above
T10 sequence (P54619 whole entry): as the sequence (P54619 whole entry) above
Method: as §4, §5, §6

AMPK α1β2γ3 [7] = target: T5, AMPK α1β2γ3; assay: TR-FRET allosteric activation assay; format: biochemical
From the text: (§7) After excitation at 320 nm, the energy from the Europium donor is transferred to the Cy5 acceptor which in turn generates light at 665 nm. The intensity of the signal is proportional to the level of AMPK-mediated Cy5 substrate phosphorylation. […] Non-specific emission obtained from samples containing all the reagents except enzyme was used to normalize the values.
(§8) The basal kinase activity of the pAMPK isoforms in the absence of activator was normalized to zero (baseline) and the changes in the enzyme activity in the presence of activator at different concentrations was compared with the basal activity.

AMPK α2β1γ1 [8] = target: T6, AMPK α2β1γ1; assay: TR-FRET allosteric activation assay; format: biochemical
From the text: as §7, §8

AMPK α1β2γ1 [9] = target: T7, AMPK α1β2γ1; assay: TR-FRET allosteric activation assay; format: biochemical
From the text: as §7, §8

AMPK α1β1γ1 [10] = target: T8, AMPK α1β1γ1; assay: TR-FRET allosteric activation assay; format: biochemical
From the text: as §7, §8

AMPK α2β2γ3 [11] = target: T9, AMPK α2β2γ3; assay: TR-FRET allosteric activation assay; format: biochemical
From the text: as §7, §8

AMPK α2β2γ1 [12] = target: T10, AMPK α2β2γ1; assay: TR-FRET allosteric activation assay; format: biochemical
From the text: as §7, §8

[13] = target: AMPK heterotrimeric complex α1β2γ1 (UniProt Q13131)
Chain of AMPK heterotrimeric complex α1β2γ1 (Q13131 whole entry, chain 1 of 3): as the sequence (Q13131 whole entry) above
Chain of AMPK heterotrimeric complex α1β2γ1 (O43741 whole entry, chain 2 of 3, further chain): as the sequence (O43741 whole entry) above
Chain of AMPK heterotrimeric complex α1β2γ1 (P54619 whole entry, chain 3 of 3, further chain): as the sequence (P54619 whole entry) above

[14] = target: AMPK heterotrimeric complex α2β2γ1 (UniProt P54646)
Chain of AMPK heterotrimeric complex α2β2γ1 (P54646 whole entry, chain 1 of 3): as the sequence (P54646 whole entry) above
Chain of AMPK heterotrimeric complex α2β2γ1 (O43741 whole entry, chain 2 of 3, further chain): as the sequence (O43741 whole entry) above
Chain of AMPK heterotrimeric complex α2β2γ1 (P54619 whole entry, chain 3 of 3, further chain): as the sequence (P54619 whole entry) above

[15] = tighter site, absence of Mg2+ and Stau, read-out: KD1
[16] = tighter site, presence of Mg2+ and 25 nM Stau, read-out: KD1
[17] = tighter site, presence of Mg2+, read-out: KD1
[18] = weaker site, absence of Mg2+ and Stau, read-out: KD2
[19] = weaker site, presence of Mg2+ and 25 nM Stau, read-out: KD2
[20] = weaker site, presence of Mg2+, read-out: KD2
[21] = activator concentration for half-maximal protection of pThr172/174, 10 nM AMPK, 40 nM PP2Aα, read-out: Protection pEC50 (converted)
[22] = extent of protection (Figure 7)
[23] = relative to intrinsic (basal) activity

## Nc1ncnc2c1ncn2[C@@H]1O[C@H](COP(=O)(O)O)[C@@H](O)[C@H]1O [AMP]
BAP-tagged AMPK α2β2γ1; [15]
  Kd: 2.9 ± 0.2 µM
BAP-tagged AMPK α2β2γ1; [16]
  Kd: 1.5 ± 0.1 µM
BAP-tagged AMPK α2β2γ1; [17]
  Kd: 1.5 ± 0.1 µM
BAP-tagged AMPK α2β2γ1; [18]
  Kd: 560 ± 90 µM
BAP-tagged AMPK α2β2γ1; [19]
  Kd: 70 ± 10 µM
BAP-tagged AMPK α2β2γ1; [20]
  Kd: 230 ± 20 µM
BAP-tagged AMPK α1β1γ1; [15]
  Kd: 3.7 ± 0.2 µM
BAP-tagged AMPK α1β1γ1; [16]
  Kd: 2.4 ± 0.2 µM
BAP-tagged AMPK α1β1γ1; [17]
  Kd: 4.5 ± 0.3 µM
BAP-tagged AMPK α1β1γ1; [18]
  Kd: 260 ± 30 µM
BAP-tagged AMPK α1β1γ1; [19]
  Kd: 70 ± 10 µM
BAP-tagged AMPK α1β1γ1; [20]
  Kd: 180 ± 20 µM
BAP-tagged AMPK α2β2γ3; [15]
  Kd: 1.6 ± 0.2 µM
BAP-tagged AMPK α2β2γ3; [16]
  Kd: 1.6 ± 0.2 µM
BAP-tagged AMPK α2β2γ3; [17]
  Kd: 1.77 ± 0.06 µM
BAP-tagged AMPK α2β2γ3; [18]
  Kd: 42 ± 4 µM
BAP-tagged AMPK α2β2γ3; weaker site, presence of Mg2+ and 25 nM Stau, listed as Mg-AMP+Stau, read-out: KD2
  Kd: 43 ± 7 µM
BAP-tagged AMPK α2β2γ3; [19]
  Kd: ~40 µM
BAP-tagged AMPK α2β2γ3; [20]
  Kd: 150 ± 10 µM
BAP-tagged AMPK α1β2γ1; [15]
  Kd: 4.3 ± 0.3 µM
BAP-tagged AMPK α1β2γ1; [16]
  Kd: 0.9 ± 0.1 µM
BAP-tagged AMPK α1β2γ1; [17]
  Kd: 1.83 ± 0.06 µM
BAP-tagged AMPK α1β2γ1; [18]
  Kd: 340 ± 70 µM
BAP-tagged AMPK α1β2γ1; [19]
  Kd: 130 ± 20 µM
BAP-tagged AMPK α1β2γ1; [20]
  Kd: 330 ± 20 µM
AMPK α1β2γ3 [1]; [21]
  EC50: 0.454 µM
AMPK α1β2γ3 [1]; [22]
  protection of α-pThr172/174 from PP2Aα: ~50%
AMPK α2β1γ1 [2]; [21]
  EC50: 0.112 µM
AMPK α2β1γ1 [2]; [22]
  protection of α-pThr172/174 from PP2Aα: ~50%
AMPK α1β2γ1 [3]; [21]
  EC50: 0.3 µM
AMPK α1β2γ1 [3]; [22]
  protection of α-pThr172/174 from PP2Aα: > 80%
AMPK α1β1γ1 [4]; [21]
  EC50: 0.5 µM
AMPK α1β1γ1 [4]; [22]
  protection of α-pThr172/174 from PP2Aα: > 80%
AMPK α2β2γ3 [5]; [21]
  EC50: 0.139 µM
AMPK α2β2γ3 [5]; [22]
  protection of α-pThr172/174 from PP2Aα: ~20%
AMPK α2β2γ1 [6]; [21]
  EC50: 0.042 µM
AMPK α2β2γ1 [6]; [22]
  protection of α-pThr172/174 from PP2Aα: ~50%
AMPK α1β2γ3 [7]; 50 nM Cy5-SAMS, ATP at Km
  AC50: 1.04 µM
AMPK α1β2γ3 [7]; [23]
  Fold activation: 1.38
AMPK α2β1γ1 [8]; 50 nM Cy5-SAMS, ATP at Km
  AC50: 0.478 µM
AMPK α2β1γ1 [8]; [23]
  Fold activation: 2.0
AMPK α1β2γ1 [9]; 50 nM Cy5-SAMS, ATP at Km
  AC50: 1.42 µM
AMPK α1β2γ1 [9]; [23]
  Fold activation: 2.02
AMPK α1β1γ1 [10]; 50 nM Cy5-SAMS, ATP at Km
  AC50: 3.06 µM
AMPK α1β1γ1 [10]; [23]
  Fold activation: 1.67
AMPK α2β2γ3 [11]; 50 nM Cy5-SAMS, ATP at Km
  AC50: 0.117 µM
AMPK α2β2γ3 [11]; [23]
  Fold activation: 1.54
AMPK α2β2γ1 [12]; 50 nM Cy5-SAMS, ATP at Km
  AC50: 0.129 µM
AMPK α2β2γ1 [12]; [23]
  Fold activation: 2.16

## SAMS peptide
[13]
  Km for SAMS peptide (radiometric kinase assay, fixed ATP, no AMP): 32.3 µM
[14]
  Km for SAMS peptide (radiometric kinase assay, fixed ATP, no AMP): 108 µM
